US12391737B2, “Soluble NPY2 receptor agonists” (Boehringer Ingelheim International GmbH, priority 2020, dated 2025)
*1 amine or outer side, *2 acyl side, *3 side chain or, on linkers, in order; H or OH if unused. Where a SMILES comes first, the peptide text is derived from it. Side-chain parts run from the residue outwards. The star is where a group is joined. C18 diacid = O=C(O)CCCCCCCCCCCCCCCCC(=O)*; γGlu = O=C(O)[C@H](CCC(=O)[*:2])N[*:1]; Isovaleryl = CC(C)CC(=O)*; Ahx = NCCCCCC(=O)O

What was measured:
[1] = molecular target: T1, Human Neuropeptide Y2 Receptor (Homo sapiens, UniProt P49146); experiment: Radioligand binding competition assay (RLB); details: Table 3, 125I-PYY(1-36) competition; read-out: Ki
T1 construct: purchased CHEMICON HTS066M
T1 sequence (P49146 1-381): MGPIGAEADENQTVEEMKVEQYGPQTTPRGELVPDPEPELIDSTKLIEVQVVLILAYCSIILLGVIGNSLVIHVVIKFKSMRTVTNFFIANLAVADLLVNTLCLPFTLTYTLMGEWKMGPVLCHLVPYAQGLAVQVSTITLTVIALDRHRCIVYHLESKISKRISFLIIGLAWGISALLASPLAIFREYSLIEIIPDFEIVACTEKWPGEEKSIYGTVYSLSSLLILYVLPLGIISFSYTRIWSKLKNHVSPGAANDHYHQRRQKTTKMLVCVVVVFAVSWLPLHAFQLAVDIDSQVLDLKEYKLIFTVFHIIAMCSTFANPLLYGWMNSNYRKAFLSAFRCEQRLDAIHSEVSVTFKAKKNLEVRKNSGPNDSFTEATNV
Outline: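 Receptor membranes, 0.5 μg/well; buffer 50 mM HEPES/5 mM MgCl2/1 mM CaCl2/0.2% ovalbumin, pH 7.4; 2 h RT, shaking. GF/C filtration, cold HEPES/500 mM NaCl wash, scintillation count. IC50 by nonlinear regression.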

Solubility determination = details: for Sol6: pH 6; for Sol7: pH 7
Outline: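 Sample: TFA-salt peptide at 10 mg/ml target in 0.1 M Na diphosphate, pH 6.4 or 7.0, shaken 2 h RT, filtered, diluted to 1 mg/ml.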

[2] = molecular target: T2, human NPY5 receptor (hY5R) (Homo sapiens, UniProt Q15761); experiment: HTRF cAMP Gi assay, hY5R
T2 sequence (Q15761 1-445): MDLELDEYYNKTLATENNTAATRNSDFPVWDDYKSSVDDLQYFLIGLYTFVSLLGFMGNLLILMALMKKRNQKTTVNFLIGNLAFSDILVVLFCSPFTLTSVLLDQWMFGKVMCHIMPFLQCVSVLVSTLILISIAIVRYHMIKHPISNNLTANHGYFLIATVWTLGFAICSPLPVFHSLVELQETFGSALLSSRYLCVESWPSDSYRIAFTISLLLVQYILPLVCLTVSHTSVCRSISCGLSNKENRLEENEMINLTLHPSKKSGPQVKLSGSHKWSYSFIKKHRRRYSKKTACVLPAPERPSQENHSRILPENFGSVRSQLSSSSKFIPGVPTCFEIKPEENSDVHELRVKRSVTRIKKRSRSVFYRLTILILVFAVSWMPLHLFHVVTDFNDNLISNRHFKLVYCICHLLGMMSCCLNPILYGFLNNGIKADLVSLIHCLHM

Row | Structure (SMILES) | Ki [1] | Sol6 (Solubility determination) | Sol7 (Solubility determination) | EC50 [2]
1 | CC(C)CC(=O)N[C@@H](C)C(=O)N1CCC[C@H]1C(=O)N[C@@H](CCC(=O)O)C(=O)N[C@@H](CCCCNC(=O)CCCCCNC(=O)CC[C@H](NC(=O)CCCCCCCCCCCCCCCCC(=O)O)C(=O)O)C(=O)N1CCC[C@H]1C(=O)N[C@@H](CCC(=O)O)C(=O)N[C@@H](CCC(=O)O)C(=O)N[C@@H](CC(=O)O)C(=O)N[C@@H](C)C(=O)N[C@@H](CO)C(=O)N1CCC[C@H]1C(=O)N[C@@H](CCC(=O)O)C(=O)N[C@@H](CCC(=O)O)C(=O)N[C@@H](CC(C)C)C(=O)N[C@@H](CCC(N)=O)C(=O)N[C@@H](CCC(N)=O)C(=O)N[C@@H](Cc1ccc(O)cc1)C(=O)N[C@@H](Cc1ccc(O)cc1)C(=O)N[C@H](C(=O)N[C@@H](CO)C(=O)N[C@@H](CC(C)C)C(=O)N[C@@H](CCCNC(=N)N)C(=O)N[C@@H](Cc1c[nH]cn1)C(=O)N[C@@H](Cc1ccc(O)cc1)C(=O)N[C@@H](Cc1ccc(O)cc1)C(=O)N[C@@H](Cc1c[nH]cn1)C(=O)N[C@@H](Cc1c[nH]c2ccccc12)C(=O)N[C@@H](CC(C)C)C(=O)N[C@H](C(=O)N[C@@H](CCCNC(=N)N)C(=O)N[C@@H](CCC(N)=O)C(=O)N[C@@H](CCCNC(=N)N)C(=O)N[C@@H](Cc1ccc(O)cc1)C(N)=O)[C@@H](C)O)C(C)C [Compound 12, N{alpha-4}-(3-methylbutanoyl)-N{epsilon-7}-(6-[(4S)-4-carboxy-4-(17-carboxyheptadecanamido)butanamido]hexanoyl)[4A,7K,9E,18Q,19Q,22V,28Y,29H,30W,31L]-hPYY(4-36)] (Isovaleryl-APEK([Ahx-γGlu-C18 diacid])PEEDASPEELQQYYVSLRHYYHWLTRQRY-NH2) | 4.16 nM | 9.4 mg/mL | 9.8 mg/mL | > 5000 nM
2 | CC[C@H](C)[C@H](NC(=O)[C@H](CCC(=O)O)NC(=O)[C@H](CCC(=O)O)NC(=O)[C@@H]1CCCN1C(=O)[C@H](CO)NC(=O)[C@H](C)NC(=O)[C@H](CC(=O)O)NC(=O)[C@H](CCC(=O)O)NC(=O)[C@@H]1CCCN1C(=O)[C@@H]1CCCN1C(=O)[C@H](CCCCNC(=O)CCCCCNC(=O)CC[C@H](NC(=O)CCCCCCCCCCCCCCCCC(=O)O)C(=O)O)NC(=O)[C@H](CCC(=O)O)NC(=O)[C@@H]1CCCN1C(=O)[C@H](C)NC(=O)CC(C)C)C(=O)N[C@@H](CCC(N)=O)C(=O)N[C@@H](CCCNC(=N)N)C(=O)N[C@@H](Cc1ccc(O)cc1)C(=O)N[C@@H](Cc1ccc(O)cc1)C(=O)N[C@H](C(=O)N[C@@H](CO)C(=O)N[C@@H](CC(C)C)C(=O)N[C@@H](CCCNC(=N)N)C(=O)N[C@@H](Cc1c[nH]cn1)C(=O)N[C@@H](Cc1ccc(O)cc1)C(=O)N[C@@H](Cc1ccc(O)cc1)C(=O)N[C@@H](CC(N)=O)C(=O)N[C@@H](Cc1c[nH]c2ccccc12)C(=O)N[C@@H](CC(C)C)C(=O)N[C@H](C(=O)N[C@@H](CCCNC(=N)N)C(=O)N[C@@H](CCC(N)=O)C(=O)N[C@@H](CCCNC(=N)N)C(=O)N[C@@H](Cc1ccc(O)cc1)C(N)=O)[C@@H](C)O)C(C)C [Compound 172, N{alpha-4}-(3-methylbutanoyl)-N{epsilon-7}-(6-[(4S)-4-carboxy-4-(17-carboxyheptadecanamido)butanamido]hexanoyl)-[4A,7K,9P,17I,18Q,22V,28Y,30W,31L]-hPYY(4-36)] | 0.81 nM | 10.0 mg/mL | >10.0 mg/mL | > 5000 nM
3 | CC(C)CC(=O)N[C@@H](C)C(=O)N1CCC[C@H]1C(=O)N[C@@H](CCC(=O)O)C(=O)N[C@@H](CCCCNC(=O)CCCCCNC(=O)CC[C@H](NC(=O)CCCCCCCCCCCCCCCCC(=O)O)C(=O)O)C(=O)N1CCC[C@H]1C(=O)N[C@@H](CCC(=O)O)C(=O)N[C@@H](CCC(=O)O)C(=O)N[C@@H](CC(=O)O)C(=O)N[C@@H](C)C(=O)N[C@@H](CO)C(=O)N1CCC[C@H]1C(=O)N[C@@H](CCC(=O)O)C(=O)N[C@@H](CCC(=O)O)C(=O)N[C@@H](CC(C)C)C(=O)N[C@@H](CCC(N)=O)C(=O)N[C@@H](CCCNC(=N)N)C(=O)N[C@@H](Cc1ccc(O)cc1)C(=O)N[C@@H](Cc1ccc(O)cc1)C(=O)N[C@H](C(=O)N[C@@H](CO)C(=O)N[C@@H](CC(C)C)C(=O)N[C@@H](CCCNC(=N)N)C(=O)N[C@@H](Cc1c[nH]cn1)C(=O)N[C@@H](Cc1ccc(O)cc1)C(=O)N[C@@H](Cc1ccc(O)cc1)C(=O)N[C@@H](CC(N)=O)C(=O)N[C@@H](Cc1c[nH]c2ccccc12)C(=O)N[C@@H](CC(C)C)C(=O)N[C@H](C(=O)N[C@@H](CCCNC(=N)N)C(=O)N[C@@H](CCC(N)=O)C(=O)N[C@@H](CCCNC(=N)N)C(=O)N[C@@H](Cc1ccc(O)cc1)C(N)=O)[C@@H](C)O)C(C)C [Compound 79, N{alpha-4}-(3-methylbutanoyl)-N{epsilon-7}-(6-[(4S)-4-carboxy-4-(17-carboxyheptadecanamido)butanamido]hexanoyl)-[4A,7K,9E,18Q,22V,28Y,30W,31L]-hPYY(4-36)] | 1.54 nM | 10.0 mg/mL | 10.0 mg/mL | > 5000 nM

Further lines, results first:

Row | Ki [1] | Sol6 (Solubility determination) | Sol7 (Solubility determination) | EC50 [2] | Structure (SMILES)
4 | 3.98 nM | 9.3 mg/mL | 9.2 mg/mL | > 5000 nM | CC[C@H](C)[C@H](NC(=O)[C@H](CCC(=O)O)NC(=O)[C@H](CCC(=O)O)NC(=O)[C@@H]1CCCN1C(=O)[C@H](CO)NC(=O)[C@H](C)NC(=O)[C@H](CC(=O)O)NC(=O)[C@H](CCC(=O)O)NC(=O)[C@H](CCC(=O)O)NC(=O)[C@@H]1CCCN1C(=O)[C@H](CCCCNC(=O)CCCCCNC(=O)CC[C@H](NC(=O)CCCCCCCCCCCCCCCCC(=O)O)C(=O)O)NC(=O)[C@H](CCC(=O)O)NC(=O)[C@@H]1CCCN1C(=O)[C@H](C)NC(=O)CC(C)C)C(=O)N[C@@H](CCC(N)=O)C(=O)N[C@@H](CCC(N)=O)C(=O)N[C@@H](Cc1ccc(O)cc1)C(=O)N[C@@H](Cc1ccc(O)cc1)C(=O)N[C@H](C(=O)N[C@@H](CO)C(=O)N[C@@H](CC(C)C)C(=O)N[C@@H](CCCNC(=N)N)C(=O)N[C@@H](Cc1c[nH]cn1)C(=O)N[C@@H](Cc1ccc(O)cc1)C(=O)N[C@@H](Cc1ccc(O)cc1)C(=O)N[C@@H](CC(N)=O)C(=O)N[C@@H](Cc1c[nH]c2ccccc12)C(=O)N[C@@H](CC(C)C)C(=O)N[C@H](C(=O)N[C@@H](CCCNC(=N)N)C(=O)N[C@@H](CCC(N)=O)C(=O)N[C@@H](CCCNC(=N)N)C(=O)N[C@@H](Cc1ccc(O)cc1)C(N)=O)[C@@H](C)O)C(C)C [Compound 15, N{alpha-4}-(3-methylbutanoyl)-N{epsilon-7}-(6-[(4S)-4-carboxy-4-(17-carboxyheptadecanamido)butanamido]hexanoyl)[4A,7K,9E,17I,18Q,19Q,22V,28Y,30W,31L]-hPYY(4-36)]
5 | 5.29 nM | 7.2 mg/mL | 9.0 mg/mL | > 5000 nM | CC(C)CC(=O)N[C@@H](C)C(=O)N1CCC[C@H]1C(=O)N[C@@H](C)C(=O)N[C@@H](CCCCNC(=O)CCCCCNC(=O)CC[C@H](NC(=O)CCCCCCCCCCCCCCCCC(=O)O)C(=O)O)C(=O)N1CCC[C@H]1C(=O)N[C@@H](CCC(=O)O)C(=O)N[C@@H](CCC(=O)O)C(=O)N[C@@H](CC(=O)O)C(=O)N[C@@H](C)C(=O)N[C@@H](CO)C(=O)N1CCC[C@H]1C(=O)N[C@@H](CCC(=O)O)C(=O)N[C@@H](CCC(=O)O)C(=O)N[C@@H](CC(C)C)C(=O)N[C@@H](CCC(N)=O)C(=O)N[C@@H](CCCNC(=N)N)C(=O)N[C@@H](Cc1ccc(O)cc1)C(=O)N[C@@H](Cc1ccc(O)cc1)C(=O)N[C@H](C(=O)N[C@@H](CO)C(=O)N[C@@H](CC(C)C)C(=O)N[C@@H](CCCNC(=N)N)C(=O)N[C@@H](Cc1c[nH]cn1)C(=O)N[C@@H](Cc1ccc(O)cc1)C(=O)N[C@@H](Cc1ccc(O)cc1)C(=O)N[C@@H](CC(N)=O)C(=O)N[C@@H](Cc1c[nH]c2ccccc12)C(=O)N[C@@H](CC(C)C)C(=O)N[C@H](C(=O)N[C@@H](CCCNC(=N)N)C(=O)N[C@@H](CCC(N)=O)C(=O)N[C@@H](CCCNC(=N)N)C(=O)N[C@@H](Cc1ccc(O)cc1)C(N)=O)[C@@H](C)O)C(C)C [Compound 145, N{alpha-4}-(3-methylbutanoyl)-N{epsilon-7}-(6-[(4S)-4-carboxy-4-(17-carboxyheptadecanamido)butanamido]hexanoyl)-[4A,6A,7K,9E,18Q,22V,28Y,30W,31L]-hPYY(4-36)]
